Data set [1] has as its system protein kinase C. To be noted: competing with diacylglycerol for the binding site; cited from earlier work.
For data set [2], the system named is Chinese hamster ovary (CHO) cells. To be noted: cited from earlier work.
Data set [3] deals with L1210 murine lymphocytic leukemia cells. Nature of the data set: L1210 cytotoxicity assay (inhibition of growth). The class given is cell-based. As to the method: The morphological effect was usually measured 30–35 h after the start of the assay and again about 24 h later, while the cytotoxicity was determined when the number of cells in the controls reached approximately 8000, usually in 3 days after the assay was begun. It should be noted that the pointed cells were live cells and that they were counted as such for the cytotoxicity reading. […] All morphologically-changed cells were counted in the pointed cell percentage.
Cytotoxicity assays against L1210 murine lymphocytic leukemia cells were performed by dissolving the samples in methanol and/or hexane were applied to the dry assay wells and the solvent was allowed to evaporate. Cells (1000) were added in minimum essential medium (MEM, 1 ml) and incubated 37° C. Inhibition of growth was recorded as the estimated percentage of living cells in sample wells versus that in control wells.

For data set [4] the test system is unchanged. Nature of the data set: L1210 morphological change (pointed cells). To be noted: for % Pointed Cells 1st: 27 h. In kind it is cell-based. Here is the method:
Referring to FIG. 1, in the L1210 assay some of the cells changed from being spherical (FIG. 1A) to ovoid with long points approximately […] apart (FIG. 1B). Several other forms have also been observed in assays of these extracts, including cells with points not […] apart (FIG. 1C), cells with more than two points (FIG. 1D), cells with a bulge (FIG. 1E) and cells with a bulge replacing one of the points (FIG. 1F). However, the form with two sharp, opposing points was by far the predominant and characteristic one observed. This type of morphological change had not previously been observed during the screening of over 1000 marine extracts.
As discussed above, the spisulosines caused a distinct morphological change in L1210 leukemia cells, in addition to cytotoxicity. This bioactivity, which was recorded as the percentage of living cells in which altered morphology was observed, could be observed sometimes as early as 13 h after the start of the assay and reached a maximum at 50–60 h, after which it decreased. […] The morphological effect was usually measured 30–35 h after the start of the assay and again about 24 h later, while the cytotoxicity was determined when the number of cells in the controls reached approximately 8000, usually in 3 days after the assay was begun. It should be noted that the pointed cells were live cells and that they were counted as such for the cytotoxicity reading. Also, assays in which 100% cytotoxicity was recorded may still have contained live cells (<0.5%) which may or may not have been pointed. All morphologically-changed cells were counted in the pointed cell percentage.
Morphologically-changed cells (FIGS. 1A–1F) were counted as living cells when determining the percent inhibition of growth. Morphological changes were assessed throughout the assay period. The percentage of pointed cells was determined by counting the number of altered cells in approximately 60 living cells. This percentage varied with the length of time the assay had been running. It generally reached its maximum about 50 hours after the start of the assay, but pointed cells could be observed as early as 13 hours after the start of the assay and could usually still be seen when the percent growth inhibition was measured. The percentages of pointed cells were often counted both after about 35 and after 55 hours. The time that this measurement was made is indicated with the data.

Data set [5] relates to HL-60 cells. To be noted: cells treated with phorbol 12-myristate-13-acetate; cited from earlier work.
Data set [6] relates to Gram-positive and Gram-negative bacteria and fungi. To be noted: cited from earlier work.
Data set [7] deals with Nippostrongylus brasiliensis. To be noted: cited from earlier work.
For data set [8], the system named is Vero cells. The experiment in a line: effect of LPA on the action of spisulosine 285 in Vero cells (Example D). In kind it is cell-based. From the text: LPA is known to increase the level of stress fibers in cells by activation of the Rho protein. The effect of LPA on cells treated with spisulosine 285, and untreated cells was examined. […]

Where two headings read alike, the source gives them in different places.

The % Inhibition is the relative decrease from the control value, in per cent. A high value points to a response far below the control. For `CCCCCCCCCCCCC/C=C/[C@@H](O)[C@@H](N)CO` (relative stereo) [sphingosine, D-trans-erythro-sphingosine, reference compound], in data set [1], the “inhibition of protein kinase C” value is “potent inhibitor”. The cytotoxicity entry in data set [2] was “cytotoxic”. Also, the “L1210 cytotoxicity (in words)” value in data set [3] is recorded as “moderate cytotoxicity”. Also, the “% Inhibition” value in data set [3] (0.1 μg/ml) worked out at 0%; in data set [3] (0.5 μg/ml), 31%; in data set [3] (1 μg/ml) it was 75%; in data set [3] (5 μg/ml), 100%. Further, the “L1210 morphological alteration / pointed cell activity (in words)” value in data set [4] is “no morphological effect”. In addition, the “% Pointed cells” value in data set [4] (0.1 μg/ml), in data set [4] (0.5 μg/ml), in data set [4] (1 μg/ml) and in data set [4] (5 μg/ml) was 0% each time. Further, the “differentiation of HL-60 cells” value in data set [5] is reported as “inhibit the differentiation”.

In the case of `CCCCCCCCCCCCCCCCCCN` [Compound 131, stearylamine, reference compound], the cytotoxicity entry in data set [2] is “cytotoxic”. For the same compound, in data set [3], the “L1210 cytotoxicity (in words)” value was “moderate cytotoxicity”. Besides, the inhibition at 0.1 µg/mL in data set [3] (Mus musculus, L1210, 0.1 μg/ml, read-out: % Inhibition) amounted to 0%. The inhibition at […] turned out to be 0% in data set [3] (Mus musculus, L1210, 0.25 μg/ml, read-out: % Inhibition) and 96% in data set [3] (Mus musculus, L1210, 2.5 μg/ml, read-out: % Inhibition). For the same compound, in data set [3] (Mus musculus, L1210, 0.5 μg/ml, read-out: % Inhibition), the inhibition at 0.5 µg/mL came out at 0%. Besides, the inhibition at 1 µg/mL in data set [3] (Mus musculus, L1210, 1 μg/ml, read-out: % Inhibition) came to 19%. The inhibition at 5 µg/mL in data set [3] (Mus musculus, L1210, 5 μg/ml, read-out: % Inhibition) amounted to 99%. Besides, the “L1210 morphological alteration / pointed cell activity (in words)” value in data set [4] is reported as “no morphological effect”. The “% Pointed cells” value in data set [4] (0.1 μg/ml), in data set [4] (0.5 μg/ml), in data set [4] (1 μg/ml) and in data set [4] (5 μg/ml) was 0% each time.

Take `CCCCCCCCCCCCCCC[C@H](O)[C@H](C)N` [Compound 154, (2S,3S)-2-amino-3-octadecanol]: the inhibition at 0.1 µg/mL in data set [3] (Mus musculus, L1210, 0.1 μg/ml, read-out: % Inhibitiion) turned out to be 0%. Besides, the inhibition at […] in data set [3] (Mus musculus, L1210, 0.25 μg/ml, read-out: % Inhibitiion) was found to be 0%; in data set [3] (Mus musculus, L1210, 2.5 μg/ml, read-out: % Inhibitiion), 100%. Also, the inhibition at 0.5 µg/mL in data set [3] (Mus musculus, L1210, 0.5 μg/ml, read-out: % Inhibitiion) stood at 0%. Moreover, the inhibition at 1 µg/mL in data set [3] (Mus musculus, L1210, 1 μg/ml, read-out: % Inhibitiion) came out at 63%. The inhibition at 5 µg/mL in data set [3] (Mus musculus, L1210, 5 μg/ml, read-out: % Inhibitiion) worked out at 100%. In addition, the “% Pointed Cells 1st” value in data set [4] (0.1 μg/ml), in data set [4] (0.5 μg/ml), in data set [4] (1 μg/ml) and in data set [4] (5 μg/ml) was 0% each time.

The compound `CCCCCCCCCCCCC/C=C/[C@@H](O)[C@@H](N)COP(=O)(O)OCC[N+](C)(C)C` [Compound 163, reference compound] gave an inhibition at 10 µg/mL in data set [3] (Mus musculus, L1210, 10 μg/ml) of 38%. In data set [3] (Mus musculus, L1210, 25 μg/ml), this compound yielded an inhibition at 25 µg/mL of 50%. In data set [3] (Mus musculus, L1210, 50 μg/ml), the inhibition at 50 µg/mL worked out at 88%. Moreover, the “% Pointed cells” value in data set [4] (10 μg/ml), in data set [4] (25 μg/ml) and in data set [4] (50 μg/ml) was 0% in each case.

Regarding `CCCCCCCCCCCCCCC[C@@H](O)[C@@H](N)CO` [Compound 164, dihydrosphingosine], the cytotoxicity entry in data set [2] was “did not affect the cytotoxicity”.

For `C=CCCCCCCCCCC(O)C(C)N` (centres unmarked) [Xestaminol A], the “activity against bacteria and fungi” value in data set [6] is given as “weak activity”. Besides, the antihelminthic activity result in data set [7] is reported as “antihelminthic activity”.

For Lysophosphatidic acid [LPA], the “effect of LPA added prior to spisulosine on morphology” value in data set [8] (10 mM LPA 2 hours, then 0.5 mM spisulosine 285 for 18 hours) was “prevents the morphological change promoted by spisulosine”. In addition, the level of actin entry in data set [8] (10 mM LPA, 2 hours) was “increasing the level of actin”.

Source of the values: patent US7109244B2, “Compositions and methods comprising long-chain, straight-chain 2-amino-3-hydroxyalkanes” (priority 1997, dated 2006).
